Each block holds one compound with its values, some of them ahead of it. The source made the active and inactive calls.
How the values were obtained:
Cytochrome P450 3A4 = Cytochrome P450 3A4 (Homo sapiens, UniProt P08684);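 also: CYP3A4 tested as one member of a cytochrome P450 panel screen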
Cytochrome P450 2C19 = Cytochrome P450 2C19 (Homo sapiens, UniProt P33261); test: Cytochrome panel assay with activity outcomes. Panel member name: p450-cyp2c19 Compounds with AC50 equal or less than 10 uM are considered active; assay type: functional
Cytochrome P450 2C9 = Cytochrome P450 2C9 (Homo sapiens, UniProt P11712)
INS1 = test: INS-1E survival protection against cytokine death – cell-based, luminescence, retest, dose response (AID 449756); assay type: functional; details: Rattus norvegicus;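 also: cell death triggered by IL-1 beta plus TNF-alpha plus IFN-gamma mixture; protective hits raise ATP signal compared with cytokine alone wells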
Cytochrome P450 2D6 = Cytochrome P450 2D6 (Homo sapiens, UniProt P10635);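 also: CYP2D6 member of a cytochrome P450 panel assay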
[1] = Trypanosoma cruzi growth suppression in host cells – NIH3T3 host cells, beta-gal luminescence, confirmation (AID 2044); assay type: functional, cell-based;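 also: intracellular parasites grown in NIH/3T3 mouse fibroblasts as host cells; luminescent beta-galactosidase reporter signal from transgenic T. cruzi replicating inside host cells; inhibitors lower the luminescence signal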
[2] = NIH3T3 cell viability loss – ATP luminescence, mouse fibroblasts, counter-screen, dose response (AID 2010); assay type: functional, cell-based;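 also: cells exposed to compound for about 90 hours before reading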
[3] = Luminescence Cell-Based Dose Retest to Confirm Inhibitors of Cancer Stem Cells. [Related pubchem assays (depositor defined):AID2717, AID2721]; assay type: functional; details: Homo sapiens
[4] = tested on: Streptococcus sp. 'group A'; test: Streptococcus pyogenes SK(-)GAS viability under kanamycin – luminescence, BacTiterGlo, confirmation, counter-screen for streptokinase expression inhibitor project, dose response (AID 1900); assay type: functional, organism-based
Streptococcus = test: GAS UMAA2166 growth inhibition – luminescence, BacTiterGlo, counter-screen for streptokinase expression inhibitor project, dose response (AID 1915); assay type: functional, organism-based;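 also: potency for reduction of bacterial viability or growth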

Chain of Cytochrome P450 2D6 (P10635 whole entry): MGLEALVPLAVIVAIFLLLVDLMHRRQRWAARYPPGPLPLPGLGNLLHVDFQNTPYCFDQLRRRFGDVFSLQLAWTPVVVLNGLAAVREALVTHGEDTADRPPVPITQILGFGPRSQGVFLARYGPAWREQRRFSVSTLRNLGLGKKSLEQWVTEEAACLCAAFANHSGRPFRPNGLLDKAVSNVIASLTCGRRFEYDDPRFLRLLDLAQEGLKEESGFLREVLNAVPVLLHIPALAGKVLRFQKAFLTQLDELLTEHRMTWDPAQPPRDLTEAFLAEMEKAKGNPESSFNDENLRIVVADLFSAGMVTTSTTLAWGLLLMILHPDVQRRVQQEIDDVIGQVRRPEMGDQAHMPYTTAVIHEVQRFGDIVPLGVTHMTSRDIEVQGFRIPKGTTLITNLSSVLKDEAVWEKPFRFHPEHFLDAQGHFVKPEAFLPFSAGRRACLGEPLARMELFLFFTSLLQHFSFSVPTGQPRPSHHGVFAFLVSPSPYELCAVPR
Chain of Cytochrome P450 3A4 (P08684 whole entry): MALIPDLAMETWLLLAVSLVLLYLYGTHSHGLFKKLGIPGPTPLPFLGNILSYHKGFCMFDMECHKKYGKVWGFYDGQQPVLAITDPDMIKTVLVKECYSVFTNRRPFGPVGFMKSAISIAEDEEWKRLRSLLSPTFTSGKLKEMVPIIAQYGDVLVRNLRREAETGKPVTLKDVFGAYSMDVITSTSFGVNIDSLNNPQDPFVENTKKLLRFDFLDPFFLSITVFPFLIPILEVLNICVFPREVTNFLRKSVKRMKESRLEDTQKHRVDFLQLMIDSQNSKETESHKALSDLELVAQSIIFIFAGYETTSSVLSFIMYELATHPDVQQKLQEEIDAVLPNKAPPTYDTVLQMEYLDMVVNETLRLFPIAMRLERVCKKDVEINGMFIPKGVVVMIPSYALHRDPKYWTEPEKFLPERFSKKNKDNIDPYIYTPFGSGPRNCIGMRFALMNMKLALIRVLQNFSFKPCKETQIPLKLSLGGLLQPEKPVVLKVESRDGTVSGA
Chain of Cytochrome P450 2C19 (P33261 whole entry): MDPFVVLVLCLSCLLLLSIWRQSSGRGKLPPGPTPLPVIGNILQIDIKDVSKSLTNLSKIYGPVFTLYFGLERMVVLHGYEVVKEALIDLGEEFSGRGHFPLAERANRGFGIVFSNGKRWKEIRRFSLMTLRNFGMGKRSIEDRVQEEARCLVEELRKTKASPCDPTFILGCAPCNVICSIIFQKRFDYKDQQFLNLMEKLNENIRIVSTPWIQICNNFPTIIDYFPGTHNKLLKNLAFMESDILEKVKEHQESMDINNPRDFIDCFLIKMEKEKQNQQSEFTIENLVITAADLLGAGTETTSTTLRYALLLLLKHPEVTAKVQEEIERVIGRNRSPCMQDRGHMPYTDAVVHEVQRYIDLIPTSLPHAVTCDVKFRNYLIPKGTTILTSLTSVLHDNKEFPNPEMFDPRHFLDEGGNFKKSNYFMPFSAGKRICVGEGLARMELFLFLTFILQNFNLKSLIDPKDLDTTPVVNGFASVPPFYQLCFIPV
Chain of Cytochrome P450 2C9 (P11712 whole entry): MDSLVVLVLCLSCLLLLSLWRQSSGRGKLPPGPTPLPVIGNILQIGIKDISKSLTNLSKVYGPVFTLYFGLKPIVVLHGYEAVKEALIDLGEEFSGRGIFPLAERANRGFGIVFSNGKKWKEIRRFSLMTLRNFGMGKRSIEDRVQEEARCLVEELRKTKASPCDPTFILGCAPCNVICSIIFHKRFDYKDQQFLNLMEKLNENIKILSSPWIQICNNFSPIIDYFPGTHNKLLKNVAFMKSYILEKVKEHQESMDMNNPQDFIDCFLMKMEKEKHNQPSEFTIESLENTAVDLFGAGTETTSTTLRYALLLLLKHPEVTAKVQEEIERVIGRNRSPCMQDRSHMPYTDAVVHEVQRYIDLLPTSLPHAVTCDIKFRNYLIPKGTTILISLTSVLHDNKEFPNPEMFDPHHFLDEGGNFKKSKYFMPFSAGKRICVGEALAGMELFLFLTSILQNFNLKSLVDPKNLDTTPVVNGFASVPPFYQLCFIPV

- AC50 (Cytochrome P450 3A4): 31.6 µM (inconclusive)
Compound: O=c1c(-c2ccc(Cl)cc2)nc2cnc(N3CCNCC3)nc2n1CCc1ccccc1

- AC50 (Cytochrome P450 2C19; read-out: AC50): 25.1 µM (inconclusive)
- AC50 (Cytochrome P450 2C9): 20 µM (inconclusive)
Compound: COC(=O)[C@@]1(Cc2ccc(OC)cc2)[C@@H]2[C@@H](CC(=O)[C@H]2CC(=O)C(=O)N2CCCC2)CN1C(=O)c1ccccc1

- AC50 (Cytochrome P450 3A4): 39.8 µM (inconclusive)
Compound: CC(=O)N1N=C(c2cccc([N+](=O)[O-])c2)OC1c1ccccc1Cl (centres undefined)

Compound: CCOC(=O)c1cnc(-n2nc(C)cc2C)nc1Nc1ccc(O)cc1
- AC50 (INS1): 1.67 µM (active)

Compound: CCOC(=O)C1=C(CCc2ccccc2)NC(=O)NC1c1ccc2ccccc2c1 (centres undefined)
- AC50 (INS1): 31.5 µM (active)

- AC50 (Cytochrome P450 2C9): 2.82 µM (inconclusive)
Compound: Cc1cc2nc(SCCOC(=O)Nc3ccc(Cl)cc3)nc(C)c2cc1C

- AC50 (Cytochrome P450 2D6): 8.91 µM (inconclusive)
- AC50 (Cytochrome P450 2C9): 12.6 µM (inconclusive)
Compound: O=c1c2cc(Br)ccc2[nH]c(=S)n1Cc1cccnc1

Compound: CCN(CC)CCN(C(=O)c1ccc(S(=O)(=O)N(C)C2CCCCC2)cc1)c1nc2ccc(OC)cc2s1
- EC50 [1]: 0.105 µM (active)
- EC50 [2]: > 60 µM (not active)

Compound: CC(=O)Oc1ccc(-c2ccc(C(=O)Nc3cccc(S(=O)(=O)N4CCOCC4)c3)cc2)cc1
- AC50 [3]: 1.52 µM (active)

Compound: CCN(C(=O)c1cc2c(O)nc3ccc(C)cc3c2s1)c1cccc(C)c1
- EC50 [1]: 0.708 µM (active)
- EC50 [2]: > 60 µM (inconclusive)

Compound: O=C(CN1C(=O)COc2ccccc21)N(Cc1cccnc1)Cc1cccc(F)c1
- EC50 [1]: 0.557 µM (active)
- EC50 [2]: > 60 µM (not active)

Compound: Clc1ccc(-c2nnc(-c3cccc4ccccc34)o2)cc1Cl
- AC50 (Cytochrome P450 2C19): inconclusive

Compound: COC1=CC(=O)O[C@@H](/C=C\c2ccccc2)C1
- AC50 (Cytochrome P450 2C19; read-out: AC50): 5.01 µM (inconclusive)

- AC50 (Cytochrome P450 2C19; read-out: AC50): 1.78 µM (inconclusive)
- AC50 (Cytochrome P450 2C9): 0.0251 µM (inconclusive)
Compound: O=C(COc1ccc([N+](=O)[O-])cc1)N[N-][C+]1CCCC1

- AC50 (Cytochrome P450 2C9): 7.94 µM (inconclusive)
Compound: Cc1cc(C(C)(C)C)cc(CNC2CCCCC2)c1O

- AC50 (Cytochrome P450 2D6): 0.0112 µM (inconclusive)
Compound: CCOC(=O)c1c(-c2ccccc2)csc1NC(=O)c1cccc(N2C(=O)CCC2=O)c1

- AC50 (Cytochrome P450 2D6): 15.8 µM (inconclusive)
Compound: Fc1ccc(N=C(S)NCCc2ccccc2)c(F)c1F

Compound: COc1cc(CN2CCN(C(=O)COc3ccccc3)CC2)cc(OC)c1OC
- AC50 (Cytochrome P450 3A4): 22.4 µM (inconclusive)
- AC50 (Cytochrome P450 2C9): 22.4 µM (inconclusive)

Compound: Cc1cc(C)c(S(=O)(=O)c2ccc(F)cc2C)c(Cl)n1
- EC50 [1]: 0.867 µM (active)
- EC50 [2]: > 60 µM (not active)

- AC50 (Cytochrome P450 2C19): inconclusive
Compound: CCN1CCN(CCC(=O)Nc2cccc(OC)c2)CC1.Cl

- AC50 (Cytochrome P450 2D6): 12.6 µM (inconclusive)
- AC50 (Cytochrome P450 3A4): 25.1 µM (inconclusive)
Compound: CC(C)CN1CCCC2(CCN(C(=O)c3cccc(F)c3)CC2)C1

- AC50 (Cytochrome P450 2C9): 12.6 µM (inconclusive)
Compound: CCS(=O)(=O)c1ccc2c(c1)N(S(=O)(=O)c1ccccc1)CC(C(=O)O)O2 (centres undefined)

- AC50 (Cytochrome P450 2D6): 17.8 µM (inconclusive)
Compound: O=C(CSc1nnc(-c2ccncc2)n1Cc1ccccc1)Nc1nccs1

Compound: O=[N+]([O-])c1nn(-c2ccccc2)[n+]([O-])c1NCCc1ccccc1
- EC50 [1]: 0.478 µM (active)
- EC50 [2]: > 60 µM (inconclusive)

Compound: CC1=CC(=C(C#N)c2nc3ccccc3s2)C=C(C)N1Cc1ccco1
- EC50 [1]: 1.75 µM (active)
- EC50 [2]: > 30 µM (not active)

- AC50 (Cytochrome P450 3A4): 20 µM (inconclusive)
Compound: O=C(c1ccco1)N1CCC[C@@]2(CCN(Cc3ccccc3)C2)C1

Compound: Cc1cc(N/N=C/c2cccc(Cl)c2)nc(-n2nc(C)cc2C)n1
- EC50 [4]: 1.34 µM (active)
- EC50 (Streptococcus): 1.61 µM (active)
- AC50 (INS1): 2.69 µM (active)

- AC50 (Cytochrome P450 2D6): 12.6 µM (inconclusive)
Compound: Cc1cnc(CNc2cc(-c3ccccc3CN(C)C)ncn2)cn1

- AC50 (Cytochrome P450 3A4): 20 µM (inconclusive)
Compound: CS(=O)(=O)N1CCC[C@@]2(CCN(C(=O)Nc3cccc(C#N)c3)C2)C1

- AC50 (Cytochrome P450 2D6): 0.00562 µM (inconclusive)
- AC50 (Cytochrome P450 3A4): 14.1 µM (inconclusive)
Compound: CCOC(=O)c1c(-c2ccccc2)nc2c(C)cccn12

- AC50 (Cytochrome P450 2C9): 15.8 µM (inconclusive)
Compound: CCC(=O)Nc1ccc(C(=O)CSc2nnc(-c3ccc(O)cc3)n2CC2CCCO2)cc1OC (centres undefined)

Compound: N#Cc1c(C(F)(F)F)cc(-c2ccco2)nc1SCc1ccncc1
- EC50 [1]: 0.975 µM (active)
- EC50 [2]: 4.74 µM (active)

Compound: Cc1ccc2c(c1)N(CC(=O)N1CCCCC1c1cccnc1)C(=O)CO2 (centres undefined)
- EC50 [1]: 0.482 µM (active)
- EC50 [2]: > 60 µM (not active)

Compound: OC(COC(c1ccc(F)cc1)c1ccc(F)cc1)CN1CCc2ccccc2C1 (centres undefined)
- AC50 (INS1): 18.2 µM (active)

- AC50 (Cytochrome P450 2C9): 15.8 µM (inconclusive)
Compound: CSc1nsc(SC)c1C(=O)Nc1ccc(C)cc1

- AC50 (Cytochrome P450 2C19): inconclusive
Compound: C[C@@H]1O[C@@H](O)[C@@H](O)[C@H](O)[C@H]1O

Compound: O=C1CN(c2nc(-c3cccnc3)nc3scc(-c4ccccc4)c23)CCN1
- EC50 [1]: 4.67 µM (active)
- EC50 [2]: 59.3 µM (active)

— ChEMBL document CHEMBL1201862, “PubChem BioAssay data set” (2004)
